Measured values from patent US20090117563A1, “Identification of TRPML3 (MCOLN3) as a Salty Taste Receptor and Use in Assays for Identifying Taste (Salty) Modulators and/or Therapeutics that Modulate Sodium Transport, Absorption or Excretion and/or Aldosterone and/or Vasopressin Production or Release” (priority 2007, published 2009).

T1: A419P TRPML3 (Homo sapiens, UniProt Q8TDD5, A419P)
T1 construct: expressed in transfected cells
T1 sequence (Q8TDD5 1-553 A419P): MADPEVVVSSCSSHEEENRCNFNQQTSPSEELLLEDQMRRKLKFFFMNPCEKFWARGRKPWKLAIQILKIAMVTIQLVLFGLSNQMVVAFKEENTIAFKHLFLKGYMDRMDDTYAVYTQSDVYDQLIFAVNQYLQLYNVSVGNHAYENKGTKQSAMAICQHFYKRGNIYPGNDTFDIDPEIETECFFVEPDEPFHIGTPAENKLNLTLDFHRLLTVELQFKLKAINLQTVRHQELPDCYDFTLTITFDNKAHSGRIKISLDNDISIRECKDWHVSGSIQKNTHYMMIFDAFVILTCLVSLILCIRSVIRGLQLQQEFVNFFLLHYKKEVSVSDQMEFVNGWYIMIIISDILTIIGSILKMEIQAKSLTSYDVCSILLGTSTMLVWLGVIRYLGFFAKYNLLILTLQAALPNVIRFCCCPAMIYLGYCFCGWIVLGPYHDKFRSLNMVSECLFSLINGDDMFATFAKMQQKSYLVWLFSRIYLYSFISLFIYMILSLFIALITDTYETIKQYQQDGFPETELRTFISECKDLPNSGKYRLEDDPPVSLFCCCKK

T2: human TRPML3 (Homo sapiens, UniProt Q8TDD5)
T2 construct: expressed in transfected cells
T2 sequence (Q8TDD5 1-553): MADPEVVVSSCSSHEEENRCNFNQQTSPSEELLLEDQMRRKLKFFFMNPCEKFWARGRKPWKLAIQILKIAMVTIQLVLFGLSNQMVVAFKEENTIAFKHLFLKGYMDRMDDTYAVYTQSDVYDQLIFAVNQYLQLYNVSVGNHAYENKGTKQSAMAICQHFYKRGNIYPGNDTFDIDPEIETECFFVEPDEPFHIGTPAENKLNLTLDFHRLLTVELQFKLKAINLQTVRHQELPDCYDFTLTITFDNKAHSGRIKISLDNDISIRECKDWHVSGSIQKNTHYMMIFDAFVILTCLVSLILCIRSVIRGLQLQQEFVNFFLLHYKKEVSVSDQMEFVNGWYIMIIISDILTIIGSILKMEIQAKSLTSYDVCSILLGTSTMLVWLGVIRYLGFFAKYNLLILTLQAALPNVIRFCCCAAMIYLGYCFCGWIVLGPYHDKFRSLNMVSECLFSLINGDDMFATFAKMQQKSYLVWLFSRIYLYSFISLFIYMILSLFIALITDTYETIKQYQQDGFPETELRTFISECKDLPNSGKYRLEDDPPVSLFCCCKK

T3: Homo sapiens TRPML3 A419P, expressed in HEK293 cells (human, UniProt Q8TDD5 1-553)
T3 sequence: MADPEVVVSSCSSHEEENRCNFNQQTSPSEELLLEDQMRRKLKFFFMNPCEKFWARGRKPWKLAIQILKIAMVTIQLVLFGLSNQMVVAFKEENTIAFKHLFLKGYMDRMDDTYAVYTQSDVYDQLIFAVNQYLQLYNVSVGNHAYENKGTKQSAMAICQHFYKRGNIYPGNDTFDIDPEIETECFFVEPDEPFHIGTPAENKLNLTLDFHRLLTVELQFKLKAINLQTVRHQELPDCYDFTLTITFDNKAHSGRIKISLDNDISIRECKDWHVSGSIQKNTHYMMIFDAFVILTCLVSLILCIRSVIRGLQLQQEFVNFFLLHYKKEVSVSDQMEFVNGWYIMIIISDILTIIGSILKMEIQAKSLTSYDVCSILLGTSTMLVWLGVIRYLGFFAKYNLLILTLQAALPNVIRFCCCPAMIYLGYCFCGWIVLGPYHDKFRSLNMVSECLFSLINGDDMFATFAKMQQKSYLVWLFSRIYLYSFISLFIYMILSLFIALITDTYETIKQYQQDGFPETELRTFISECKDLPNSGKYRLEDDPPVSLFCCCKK


What was measured:
[1] = tested on: human salty taste (sodium chloride taste intensity); details: concentrations that specifically modulate ENaC function; cited from earlier work
A419P TRPML3 = molecular target: T1, A419P TRPML3; assay: FLIPR membrane potential dye assay, HEK293 cells expressing A419P-TRPML3; type: cell-based; details: amiloride
Description: Specific cell-based assays for the discovery of TRPML3 modulators were developed which that could ultimately be used in food and beverages to modulate saltiness perception. A419P-TRPML3 function was monitored in HEK293 cells transiently transfected or transduced with the gene encoding A419P-TRPML3 and using specific membrane potential dyes (FMPs; Molecular Devices).
(§1) HEK293 cells were transiently transfected with RFP, αENaC or A419P-TRPML3 and were loaded with a membrane potential dye (R-8034; Molecular Devices) in HBSS at room temperature for 30 minutes. Membrane potential (fluorescent signal) was monitored on a FLIPR system (Molecular Devices).
(§2) HEK293 cells were transiently transfected with RFP or A419P-TRPML3 and were loaded with a membrane potential dye (R-8034; Molecular Devices) in HBSS at room temperature for 30 minutes. Membrane potential (fluorescent signal) was monitored on a FLIPR system (Molecular Devices).
as §2, with “HBSS, NMDG and increasing concentrations of gadolinium were added to the cells and resulting changes in membrane” for “Membrane”
as §1, with “RFP, A419P-TRPML3 or” for “RFP,”, “plasmid” for “or A419P-TRPML3”, “HBSS (control), 3 mM gadolinium and 30 uM Amiloride were added to the cells and resulting changes in membrane” for “Membrane”

human TRPML3 = molecular target: T2, human TRPML3; assay: Whole cell patch clamp electrophysiology of cells expressing human TRPML3; type: cell-based
Description: The whole cell voltage clamp technique is an electrophysiology method that measures the macroscopic electrical current flowing across the entire plasma membrane though protein channels. Live mammalian cells are placed in a special microscope chamber containing extracellular solution. Guided by a micromanipulator and under visual control, a small diameter glass pipette filled with an electrically conductive salt solution is first attached to the cell membrane using gentle negative pressure resulting in a high resistance gigaOhm seal. The membrane patch within the pipette is disrupted using further suction resulting in the whole cell patch clamp configuration. The whole cell patch clamp configuration allows the combined measurement of all ion channels proteins within the membrane or macroscopic current. Using the patch clamp amplifier in combination with the whole-cell patch clamp configuration allows the operator to control the voltage, or potential difference across the entire cell membrane, as well as the both the internal and external ionic composition of the cell. […]

αENaC = molecular target: T4, αENaC (Homo sapiens, UniProt P37088); assay: FLIPR membrane potential dye assay, HEK293 cells transfected with αENaC; type: cell-based; details: 30 uM Amiloride; αENaC versus A419P-TRPML3 transfected cells
T4 construct: expressed in transfected cells; host or cells: HEK293, transient transfection
T4 sequence (P37088 whole entry): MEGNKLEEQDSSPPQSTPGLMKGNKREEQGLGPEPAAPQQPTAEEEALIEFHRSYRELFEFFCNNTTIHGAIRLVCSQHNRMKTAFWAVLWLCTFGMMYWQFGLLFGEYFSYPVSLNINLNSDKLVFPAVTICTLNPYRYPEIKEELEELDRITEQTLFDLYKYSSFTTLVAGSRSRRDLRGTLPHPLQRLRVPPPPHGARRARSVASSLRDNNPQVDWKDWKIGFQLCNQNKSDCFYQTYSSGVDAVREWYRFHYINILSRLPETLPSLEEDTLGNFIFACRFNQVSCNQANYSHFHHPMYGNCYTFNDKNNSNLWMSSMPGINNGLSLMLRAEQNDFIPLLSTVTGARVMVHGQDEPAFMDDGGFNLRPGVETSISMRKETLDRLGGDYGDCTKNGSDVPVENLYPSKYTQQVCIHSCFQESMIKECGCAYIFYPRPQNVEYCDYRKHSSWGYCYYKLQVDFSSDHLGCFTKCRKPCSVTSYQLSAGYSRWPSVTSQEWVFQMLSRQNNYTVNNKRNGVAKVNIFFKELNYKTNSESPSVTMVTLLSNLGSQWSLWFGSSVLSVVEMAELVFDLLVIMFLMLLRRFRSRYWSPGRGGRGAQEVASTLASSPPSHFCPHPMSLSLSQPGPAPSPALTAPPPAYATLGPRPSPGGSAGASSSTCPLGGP
Method: as §1
as §1, with “RFP, A419P-TRPML3 or” for “RFP,”, “plasmid” for “or A419P-TRPML3”, “HBSS (control), 3 mM gadolinium and 30 uM Amiloride were added to the cells and resulting changes in membrane” for “Membrane”

[2] = tested on: human salty taste (sodium chloride taste intensity); assay: Human salty taste perception (perceived salt intensity); type: in vivo; details: tested at 300-fold (amiloride) and 3000-fold above IC50 values for alpha beta gamma ENaC
Description: Unlike other mammals, amiloride only slightly reduces the intensity of sodium chloride taste, i.e., by about 15-20% when used at concentrations that specifically modulate ENaC function (Halpern, B. P. (1998) Neuroscience and Behavioral Reviews. 23: 5-47). […] Based thereon, it was theorized that other (ENaC genes) were involved in human salty taste perception.

[3] = molecular target: T3, Homo sapiens TRPML3 A419P, expressed in …; assay: cell-based or functional assay

inward currents, whole cell patch clamp, HEK293 cells coexpressing A419P (0.5 ug) and WT (1.5 ug) TRPML3 cDNAs [3]	Molecule	reduction of the intensity of sodium chloride taste [1]	effect on the increased basal fluorescence elicited by A419P-TRPML3 (A419P TRPML3)	block of TRPML3 sodium conductance (current-voltage curves) (human TRPML3; 30 uM amiloride)	block of TRPML3 (human TRPML3; no concentration given)	effect on basal fluorescence counts, specificity (αENaC)	effect on perceived human salt intensity [2]
	N=C(N)NC(=O)c1nc(Cl)c(N)nc1N [amiloride]	15-20%	no effect	not blocked	not blocked	preferentially reduces basal fluorescence counts	did not elicit a significant effect
	NC(=Nc1ccccc1)NC(=O)c1nc(Cl)c(N)nc1N [phenamil]						did not elicit a significant effect
2 fold against A419P cDNA alone	Homo sapiens TRPML3 (NM_018298), wild-type, non codon optimized cDNA, expressed in HEK293 cells (other) MADPEVVVSSCSSHEEENRCNFNQQTSPSEELLLEDQMRRKLKFFFMNPCEKFWARGRKPWKLAIQILKIAMVTIQLVLFGLSNQMVVAFKEENTIAFKHLFLKGYMDRMDDTYAVYTQSDVYDQLIFAVNQYLQLYNVSVGNHAYENKGTKQSAMAICQHFYKRGNIYPGNDTFDIDPEIETECFFVEPDEPFHIGTPAENKLNLTLDFHRLLTVELQFKLKAINLQTVRHQELPDCYDFTLTITFDNKAHSGRIKISLDNDISIRECKDWHVSGSIQKNTHYMMIFDAFVILTCLVSLILCIRSVIRGLQLQQEFVNFFLLHYKKEVSVSDQMEFVNGWYIMIIISDILTIIGSILKMEIQAKSLTSYDVCSILLGTSTMLVWLGVIRYLGFFAKYNLLILTLQAALPNVIRFCCCAAMIYLGYCFCGWIVLGPYHDKFRSLNMVSECLFSLINGDDMFATFAKMQQKSYLVWLFSRIYLYSFISLFIYMILSLFIALITDTYETIKQYQQDGFPETELRTFISECKDLPNSGKYRLEDDPPVSLFCCCKK						
